Experimental data taken from patent US20250049914A1, “STEROID ACID-PEPTIDE BASED INTRACELLULAR CARGO DELIVERY” (DEFENCE THERAPEUTICS INC., priority 2021, published 2025).
Where no end group is shown, it is not given here.

Columns and labels:
[1] = test system: mesenchymal stromal cells (MSCs); experiment: DQ OVA degradation/processing in MSCs, flow cytometry; type: cell-based; settings: DQ OVA coincubated with conjugate, nine hours
Method: To evaluate OVA degradation/processing, cells were incubated with 10 µg/mL DQ™ OVA (with or without steroid acid-peptide modification) at 37° C. 30 minutes later, cells were washed, and regular media was added. At the end of the indicated incubation time, cells were collected and washed with cold PBS containing 2% FBS. Fluorescence was monitored by analyzing the cells by flow cytometry.
Mesenchymal stromal cells (MSCs) were incubated with either unconjugated fluorescently labeled OVA-AF647 alone or mixed with 45 μM of CA-HnRPA1 NLS steroid acid-peptide for nine hours and then intracellular OVA-AF647 delivery was assessed by flow cytometry as described in Example 1. […] The experiment was repeated with DQ™ OVA as cargo to evaluate the intracellular fate of the cargo delivered upon coincubation with CA-HnRPA1 NLS, as described in Example 4.

[2] = test system: cross-presenting mesenchymal stromal cell line (cpMSC); experiment: Antigen-presentation assay using the B3Z reporter system, cross-presenting MSC line; type: cell-based; settings: cpMSCs, OVA admixed, vs OVA alone or OVA mixed with CA-SV40NLS
Method: Various bile acid-NLS conjugates were screened using the B3Z reporter system. The B3Z cell line is a T-cell hybridoma specific for the H2-K^b-[…] complex. Once activated via its TCR, the LacZ reporter gene (under the NFAT promoter control) is expressed. Briefly, 1.5×10^5 BMDCs or 2.5×10^5 MSCs were co-cultured with 5×10^4 B3Z cells treated with the mixing conditions of ovalbumin (OVA) and bile acid-NLS conjugates for overnight at 37° C. with 5% CO2. The following day, all cells were washed twice with PBS (pH 7.4), and the cell pellets were lysed by adding 100 μL of a lysis buffer containing 0.15 mM chlorophenol red-beta-D-galactopyranoside (CPRG) substrate (Calbiochem, La Jolla, CA), 0.125% NP40 (EMD Sciences, La Jolla, CA), 9 mM MgCl2 (Aldrich, USA) and 100 mM 2-mercaptoethanol in PBS. After a 5- or 24-h incubation at 37° C., absorbance was taken at 570 nm with 636 nm as the reference wavelength. For these experiments, OVA was re-suspended in PBS (pH 7.3) at 5-10 mg/mL. The different bile acid-NLS conjugates were re-suspended in H2O at 10 mg/mL. Bile acid-NLS conjugate: antigen mixtures were prepared at different molar ratios according to Table 1.
Further variants of CA-SV40NLS were synthesized in which the SV40NLS peptide was replaced with peptides comprising other NLS's (Table 5) and the antigen presentation activities of the CA-NLS peptide conjugates were evaluated using the B3Z reporter system as described in Example 1. The following conjugate: antigen molar ratios were tested for each conjugate: 2:1, 4:1, 8:1, 12:1 and 22:1. The results in FIGS. 12-15 compare the antigen presentation activities of different conjugates at the conjugate: antigen ratio that yielded the highest B3Z response (OD570) for that conjugate.

[3] = test system: cpMSCs; experiment: OVA-AF647 internalization in cpMSCs, flow cytometry; type: cell-based; settings: various molar ratios
Method: For this experiment, a cross-presenting mesenchymal stromal cell line (cpMSC) was used as the antigen presenting cells, which were pulsed with the OVA cargo labelled with Alexa Fluor 647 (i.e., OVA^647)^TM. OVA^647 fluorescence was measured by flow cytometry. Different ratios of CA (NLS1 RPS17 [FIG. 16A]; NLS3 RPS17 [FIG. 16B]; and PQBP-1 [FIG. 16C] to antigen (CA: OVA=22:1, 12:1, 8:1, 4:1, and 2:1) were tested (hnRNPA1 M9 NLS at 2:1).
To further dissect the effect of bile acid peptide conjugates on antigen presentation, antigen internalization and processing were evaluated. cpMSCs were pulsed with OVA-labelled with AF647 in the presence of various molar ratios of different bile acid peptide conjugates, NLS1-RPS17 [FIG. 16A]; NLS3 RPS17 [FIG. 16B]; PQBP-1 [FIG. 16C]; and hnRNPA1 M9 NLS [FIG. 6]) and fluorescence was assessed by flow cytometry. […] OVA processing was assessed by pulsing cpMSCs with DQ™-Ovalbumin (OVA-DQ) in the presence of the same bile acid peptide conjugates as in FIGS. 6 and 16.

[4] = test system: WT MSCs; experiment: OVA-DQ processing by WT MSCs; type: cell-based, mouse; settings: OVA-DQ admixed with CA-hnRNPA1
Method: To evaluate OVA uptake, MSCs were first treated with […] of OVA-AF647 admixed with CA-hnRNPA1 for 1 hour at 37° C. then assessed for their fluorescence intensity by flow-cytometry. To evaluate antigen processing, MSCs were incubated with 10 µg/mL OVA-DQ® admixed with A1 at 37° C. Half an hour later, cells were washed, and regular media added. At the end of the indicated incubation time, cells were collected and washed with cold PBS containing 2% FBS. Fluorescence was monitored by flow cytometry.

[5] = test system: WT MSCs; experiment: Flow cytometry of H2-Kb and I-Ab expression; type: cell-based, mouse; settings: WT MSCs treated with CA-hnRNPA1
From the text: FIG. 18A and FIG. 18B show the results of antigen cross-presentation assay conducted using CA-hnRNPA1 admixed with OVA compared to controls and CA-SV40. […] For FIGS. 18B, 18E and 18F, n=6/group with *P<0.05, **P<0.01 and ***P<0.001.
FIG. 18G and FIG. 18H show the increase in H2-Kb and I-Ab expression in WT MSCs treated with CA-hnRNPA1, respectively.

[6] = test system: MSCs; experiment: Endosomal escape, apoptosis assay with recombinant cytochrome C; type: cell-based, mouse; settings: CA-hnRNPA1 50 μM, 6 h
Method: Endosomal leakage was assessed using an apoptosis assay. Briefly, 10′ MSCs were first supplemented with 10 mg/mL of exogenous rCyt-C for 6 h at 37° C. in the presence or absence of CA-hnRNPA1 (50 μM). Once the incubation period completed, the cells were collected using Accutase®, washed with ice cold PBS, then stained for Annexin-V according to manufacturer's instructions prior to analysis using BD FACS Diva™ on CANTOII™.

[7] = test system: human WT MSCs; experiment: OVA uptake by human MSCs, flow cytometry; type: cell-based; settings: CA-hnRNPA1-treated human MSCs
[8] = test system: human WT MSCs; experiment: OVA processing by human MSCs, flow cytometry; type: cell-based; settings: CA-hnRNPA1-treated human MSCs

With “CA-hnRNPA1: cholic acid conjugated to hnRNPA1 M9 NLS peptide CSNFGPMKGGNFGGRSSGPY (SEQ ID NO: 4) (not fully specified (N-terminus); also: cholic acid conjugate, site not given here)” the “DQ OVA fluorescence (intracellular degradation/processing)” value ([1]; listed as CA-HnRPA1 NLS) was “sharp increase”, the “DQ OVA fluorescence (intracellular degradation/processing)” value ([1]; listed as CA-hnRPA1 M9 NLS) was “increased intracellular degradation/processing” and the “antigen-presentation activity of cholic acid-NLS peptide conjugates (B3Z response)” value [2] was “amongst the best enhancers of cross presentation”. The “antigen-presentation activity of cholic acid-NLS peptide conjugates (B3Z response)” value ([2]; listed as CA-hnRNPA1 M9 NLS) was “highly enhance cross presentation”, the “OVA internalization (OVA-AF647 fluorescence)” value [3] was “enhance OVA internalization” and the “OVA processing by WT MSCs” value [4] was “increase in OVA processing”. For the same substance, the I-Ab expression [5] was “increase”, the “endosomal membrane damage (co-treatment with recombinant cytochrome C)” value [6] was “endosomal membrane damaging properties” and the “OVA uptake by human MSCs” value [7] was “increase of OVA uptake”. For the same substance, the “OVA processing by human MSCs” value [8] was “increase of OVA processing”.
